Results reported in US11407738B2 (Achillion Pharmaceuticals, Inc., priority 2015, dated 2022).

What follows are compounds tested against Human Factor D (Homo sapiens (Human), UniProt P00746) (assay: Human Factor D assay). Conditions: Table 3; Factor D inhibition, substrate Z-L-Lys-SBzl.
Format: biochemical
Procedure: Human Factor D (purified from human serum, Complement Technology, Inc.) at 80 nM final concentration is incubated with test compound at various concentrations for 5 min at room temperature in 50 mM Tris, 1M NaCl, pH 7.5. A synthetic substrate Z-L-Lys-SBzl and DTNB (Ellman's reagent) are added to final concentrations of 100 μM each. […] IC50 values are calculated by nonlinear regression of complement Factor D reaction rates as a function of test compound concentration.

Chain of Human Factor D (P00746 26-253): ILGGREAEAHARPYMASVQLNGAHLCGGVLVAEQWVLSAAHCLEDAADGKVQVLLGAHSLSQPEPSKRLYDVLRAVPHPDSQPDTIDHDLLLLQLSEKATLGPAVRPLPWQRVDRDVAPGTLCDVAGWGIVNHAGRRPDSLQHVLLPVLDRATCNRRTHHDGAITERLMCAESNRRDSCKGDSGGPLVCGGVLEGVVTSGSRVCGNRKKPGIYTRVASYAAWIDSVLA

CNS(=O)(=O)c1ccc(Cl)c(-c2cccc(NC(=O)[C@@H]3C[C@@H](F)CN3C(=O)Cn3nc(C(C)=O)c4cc(-c5cnc(C)nc5)ccc43)c2F)c1 [Compound 529, (2S,4R)-1-(2-(3-acetyl-5-(2-methylpyrimidin-5-yl)-1H-indazol-1-yl)acetyl)-N-(2′-chloro-2-fluoro-5′-(N-methylsulfamoyl)bi-phenyl-3-yl)-4-fluoropyrrolidine-2-carboxamide] and CC(=O)c1nn(CC(=O)N2C[C@H](F)C[C@H]2C(=O)Nc2cccc(-c3cc(S(=O)(=O)NC4CC4)ccc3Cl)c2F)c2ccc(-c3cnc(C)nc3)cc12 [Compound 521, (2S,4R)-1-(2-(3-acetyl-5-(2-methylpyrimidin-5-yl)-1H-indazol-1-yl)acetyl)-N-(2′-chloro-5′-(N-cyclopropyl-sulfamoyl)-2-fluorobiphenyl-3-yl)-4-fluoropyrrolidine-2-carboxamide] cannot be ordered by IC50: under 1000 nM for the first, under 1000 nM for the second.

First: CC(=O)c1nn(CC(=O)N2C[C@H](F)C[C@H]2C(=O)OCc2cccc(Cl)c2F)c2ccc(-c3cnc(C)nc3)cc12 [Compound 515, 3-Chloro-2-fluorobenzyl (2S,4R)-1-(2-(3-acetyl-5-(2-methylpyrimidin-5-yl)-1H-indazol-1-yl)acetyl)-4-fluoropyrrolidine-2-carboxylate]
Second: CC(=O)c1nn(CC(=O)N2C[C@H](F)C[C@H]2C(=S)NCc2cccc(Cl)c2F)c2ccc(-c3cnc(C)nc3)cc12 [Compound 517, (2S,4R)-1-(2-(3-Acetyl-5-(2-methylpyrimidin-5-yl)-1H-indazol-1-yl)acetyl)-N-(3-chloro-2-fluorobenzyl)-4-fluoropyrrolidine-2-carbothioamide]
The IC50 of the first is higher: 1000 to 10000 nM for the first, under 1000 nM for the second.

First: CC(=O)c1nn(CC(=O)N2C[C@H](F)C[C@H]2C(=O)Nc2ccc3c(S(=O)(=O)O)cccc3c2)c2ccc(-c3cnc(C)nc3)cc12 [Compound 511, 6-((2S,4R)-1-(2-(3-Acetyl-5-(2-methylpyrimidin-5-yl)-1H-indazol-1-yl)acetyl)-4-fluoropyrrolidine-2-carboxamido)naphthalene-1-sulfonic Acid]
Second: Cc1ncc(-c2ccc3c(c2)c(C(N)=S)nn3CC(=O)N2C[C@H](F)C[C@H]2C(=O)Nc2cccc(Br)n2)cn1 [Compound 527, (2S,4R)—N-(6-Bromopyridin-2-yl)-1-(2-(3-carbamothioyl-5-(2-methylpyrimidin-5-yl)-1H-indazol-1-yl)acetyl)-4-fluoropyrrolidine-2-carboxamide]
The IC50 of the first is higher: 1000 to 10000 nM for the first, under 1000 nM for the second. The second is the more potent here.

CC(=O)c1cn(CC(=O)N[C@H](C(=O)Nc2cccc(Br)n2)[C@@H](C)O)c2ccc(-c3cnc(C)nc3)cc12 [Compound 505, (2S,3R)-2-(2-(3-Acetyl-5-(2-methylpyrimidin-5-yl)-1H-indol-1-yl)acetamido)-N-(6-bromopyridin-2-yl)-3-hydroxybutanamide] and CC(=O)c1cn(CC(=O)N[C@H](C(=O)Nc2cccc(-c3ccccc3Cl)c2F)[C@@H](C)O)c2ccc(-c3cnc(C)nc3)cc12 [Compound 500] cannot be ordered by IC50: under 1000 nM for the first, under 1000 nM for the second.

Going from CC(=O)c1nn(CC(=O)N2C[C@H](F)C[C@H]2C(=O)N2CCn3c(nnc3C(F)(F)F)C2)c2ccc(-c3cnc(C)nc3)cc12 [Compound 524, 2-(3-acetyl-5-(2-methylpyrimidin-5-yl)-1H-indazol-1-yl)-1-((2S,4R)-4-fluoro-2-(3-(trifluoromethyl)-5,6,7,8-tetrahydro-[1,2,4]triazolo[4,3-a]pyrazine-7-carbonyl)pyrrolidin-1-yl)ethanone] to CC(=O)Cc1nn(CC(=O)N2C[C@H](F)C[C@H]2C(=O)Nc2cccc(Br)n2)c2ccc(-c3cnc(C)nc3)cc12 [Compound 522, (2S,4R)-N-(6-bromopyridin-2-yl)-4-fluoro-1-(2-(5-(2-methylpyrimidin-5-yl)-3-(2-oxopropyl)-1H-indazol-1-yl)acetyl)pyrrolidine-2-carboxamide], the IC50 falls from over 10000 nM to under 1000 nM.

Compound CC(=O)c1cn(CC(=O)NC(CC(F)(F)F)C(=O)Nc2cccc(-c3ccccc3Cl)c2F)c2ccc(-c3cnc(C)nc3)cc12 (centres unmarked) [Compound 507, 2-(2-(3-Acetyl-5-(2-methylpyrimidin-5-yl)-1H-indol-1-yl)acetamido)-N-(2′-chloro-2-fluorobiphenyl-3-yl)-4,4,4-trifluorobutanamide] has an IC50 of over 10000 nM.

Same assay, conditions: Table 4; Factor D inhibition, substrate Z-L-Lys-SBzl

Cc1cccc(NC(=O)[C@@H]2CCC(F)CCN2C(=O)Cn2cc(C(N)=O)c3cc(-c4cnc5n4CCCC5)ccc32)n1 (stereo partly drawn) [Compound 616, 1-(2-((2S)-5-Fluoro-2-((6-methylpyridin-2-yl)carbamoyl)azepan-1-yl)-2-oxoethyl)-5-(5,6,7,8-tetrahydroimidazo[1,2-a]pyridin-3-yl)-1H-indole-3-carboxamide] and Cc1cccc(NC(=O)[C@@H]2CCC(F)CCN2C(=O)Cn2cc(C(N)=O)c3cc(-c4ccc5c(c4)CCCC5)ccc32)n1 (stereo partly drawn) [Compound 589, 1-(2-((2S)-5-fluoro-2-((6-methylpyridin-2-yl)carbamoyl)azepan-1-yl)-2-oxoethyl)-5-(5,6,7,8-tetrahydronaphthalen-2-yl)-1H-indole-3-carboxamide] cannot be ordered by IC50: over 10000 nM for the first, over 10000 nM for the second.

First: Cc1ncc(-c2ccc3c(c2)c(C(=O)CP(=O)(O)O)nn3CC(=O)N2C[C@H](F)C[C@H]2C(=O)Nc2cccc(Br)n2)cn1 [Compound 626, (2-(1-(2-((2S,4R)-2-((6-bromopyridin-2-yl)carbamoyl)-4-fluoropyrrolidin-1-yl)-2-oxoethyl)-5-(2-methylpyrimidin-5-yl)-1H-indazol-3-yl)-2-oxoethyl)phosphonic acid]
Second: C/C(=N\O)c1nn(CC(=O)N2C[C@H](F)C[C@H]2C(=O)Nc2cccc(Br)n2)c2ccc(-c3cnc(C)nc3)cc12 [Compound 555, (2S,4R)—N-(6-Bromopyridin-2-yl)-4-fluoro-1-(2-(3-((E)-1-(hydroxyimino)ethyl)-5-(2-methylpyrimidin-5-yl)-1H-indazol-1-yl)acetyl)pyrrolidine-2-carboxamide]
The IC50 of the first is higher: over 10000 nM for the first, under 1000 nM for the second.

COC(=O)[C@@H]1C[C@@H](F)CN1C(=O)Cn1nc(C(C)O)c2cc(-c3cnc(C)nc3)ccc21 (stereo partly drawn) [Compound 633, Methyl (2S,4R)-4-fluoro-1-(2-(3-(1-hydroxyethyl)-5-(2-methylpyrimidin-5-yl)-1H-indazol-1-yl)acetyl)pyrrolidine-2-carboxylate] and CC(=O)c1nn(CC(=O)N2C[C@H](F)C[C@H]2c2nc3nc(Br)ccc3[nH]2)c2ccc(-c3cnc(C)nc3)cc12 [Compound 564, 2-(3-Acetyl-5-(2-methylpyrimidin-5-yl)-1H-indazol-1-yl)-1-((2S,4R)-2-(5-bromo-1H-imidazo[4,5-b]pyridin-2-yl)-4-fluoropyrrolidin-1-yl)ethan-1-one] cannot be ordered by IC50: over 10000 nM for the first, over 10000 nM for the second.

CC(=O)c1nn(CC(=O)N2C[C@H](F)C[C@H]2C(=O)Nc2cccc(-c3ccc4c(c3Cl)NCCN4)c2F)c2ccc(-c3cnc(C)nc3)cc12 [Compound 560, (2S,4R)-1-(2-(3-Acetyl-5-(2-methylpyrimidin-5-yl)-1H-indazol-1-yl)acetyl)-N-(3-(5-chloro-1,2,3,4-tetrahydroquinoxalin-6-yl)-2-fluorophenyl)-4-fluoropyrrolidine-2-carboxamide] and CC(=O)c1nn(CC(=O)N2C[C@H](F)C[C@H]2C(=O)Nc2cccc(-c3ccccc3Cl)c2F)c2ccc(N3CCn4c(nnc4C(F)(F)F)C3)cc12 [Compound 619, (2S,4R)-1-(2-(3-acetyl-5-(3-(trifluoromethyl)-5,6-dihydro-[1,2,4]triazolo[4,3-a]pyrazin-7(8H)-yl)-1H-indazol-1-yl)acetyl)-N-(2′-chloro-2-fluoro-[1,1′-biphenyl]-3-yl)-4-fluoropyrrolidine-2-carboxamide] cannot be ordered by IC50: under 1000 nM for the first, under 1000 nM for the second.

CC(=O)c1nn(CC(=O)N2C[C@@](F)(CN=[N+]=[N-])C[C@H]2C(=O)Nc2cccc(Br)n2)c2ccc(-c3cnc(C)nc3)cc12 [Compound 547, (2S,4R)-1-(2-(3-Acetyl-5-(2-methylpyrimidin-5-yl)-1H-indazol-1-yl)acetyl)-4-(azidomethyl)-N-(6-bromopyridin-2-yl)-4-fluoropyrrolidine-2-carboxamide] and CC(=O)c1nn(CC(=O)N2CC=CC[C@H]2C(=O)Nc2cccc(Br)n2)c2ccc(-c3cnc(C)nc3)cc12 [Compound 573, (S)-1-(2-(3-Acetyl-5-(2-methylpyrimidin-5-yl)-1H-indazol-1-yl)acetyl)-N-(6-bromopyridin-2-yl)-1,2,3,6-tetrahydropyridine-2-carboxamide] cannot be ordered by IC50: under 1000 nM for the first, under 1000 nM for the second.

First: CCOP(=O)(OCC)OC[C@@]12C[C@@H](C(=O)Nc3cccc(Br)n3)N(C(=O)Cn3nc(C(C)=O)c4cc(-c5cnc(C)nc5)ccc43)[C@@H]1C2 [Compound 582, ((1R,3S,5S)-2-(2-(3-Acetyl-5-(2-methylpyrimidin-5-yl)-1H-indazol-1-yl)acetyl)-3-(6-bromopyridin-2-ylcarbamoyl)-2-azabicyclo[3.1.0]hexan-5-yl)methyl diethyl phosphate]
Second: CCOP(=O)(OCC)OC[C@@]12C[C@@H]1N(C(=O)Cn1nc(C(C)=O)c3cc(-c4cnc(C)nc4)ccc31)[C@H](C(=O)Nc1cccc(Br)n1)C2 [Compound 628, ((1S,3S,5R)-2-(2-(3-acetyl-5-(2-methylpyrimidin-5-yl)-1H-indazol-1-yl)acetyl)-3-((6-bromopyridin-2-yl)carbamoyl)-2-azabicyclo[3.1.0]hex-an-5-yl)methyl diethyl phosphate]
The IC50 of the first is lower: under 1000 nM for the first, 1000 to 10000 nM for the second.

CC(=O)c1nn(CC(=O)N2CCC[C@@H](C(=O)NCc3cccc(Br)n3)C2)c2ccc(-c3cnc(C)nc3)cc12 [Compound 642] and CC(=O)c1nn(CC(=O)N2CCC[C@H](CNC(=O)c3cccc(Br)n3)C2)c2ccc(-c3cnc(C)nc3)cc12 [Compound 556, (R)—N-((1-(2-(3-Acetyl-5-(2-methylpyrimidin-5-yl)-1H-indazol-1-yl)acetyl)piperidin-3-yl)methyl)-6-bromopicolinamide] cannot be ordered by IC50: over 10000 nM for the first, over 10000 nM for the second.

In the case of CC[C@@H](NC(=O)Cn1nc(C(C)=O)c2cc(-c3cnc(C)nc3)ccc21)C(=O)Nc1cccc(Br)n1 [Compound 599], the IC50 is reported as over 10000 nM.
